Experimental data published in patent publication US5420129A, “Phenylsulfonylamide pyrimidine” (Hoffmann-La Roche Inc., priority 1992, dated 1995).

Key:
isolated rat aorta rings = assay: Endothelin-induced contractions in isolated rat aorta rings; set-up: species or system rat (Wistar-Kyoto); conditions: in the absence of test compounds; endothelium removed; 37° C.; read-out: EC50 of endothelin (concentration required for a half-maximum contraction)
Procedure: II. Inhibition of endothelin-induced contractions in isolated rat aorta rings
Rings with a length of 5 mm were cut out from the thorax aorta of adult Wistar-Kyoto rats. The endothelium was removed by lightly rubbing the internal surface. Each ring was immersed at 37° C. in 10 ml of Krebs-Henseleit solution in an isolated bath while gassing with 95% O2 and 5% CO2. The isometric stretching of the rings was measured. The rings were stretched to a pre-tension of 3 g. After incubation for 10 minutes with the test compound or vehicle cumulative dosages of endothelin-1 were added. The activity of the test compound was determined by calculating the dosage ratios, i.e. the shift to the right (shift to higher values) of the EC50 of endothelin induced by 100 μM of test compound, with EC50 denoting the endothelin concentration required for a half-maximum contraction. […] The EC50 of endothelin in the absence of test compounds is 0.3 nM.

[1] = target: endothelin receptors (human placenta membranes); assay: Inhibition of endothelin binding to human placenta membranes (125I-endothelin); conditions: 125I-endothelin 20 pM, 20° C. for 2 hours or 4° C. for 24 hours, read-out: IC50 (concentration required to inhibit 50% of the specific binding of 125I-endothelin)
Procedure: I. Inhibition of endothelin binding to human placenta membranes (see. Life Sci 44:1429 (1989))
Human placenta is homogenized in 5 mM Tris buffer, pH 7.4, which contains 1 mM MgCl2 and 250 mM sucrose. The homogenizate is centrifuged at 4° C. and 3000 g for 15 minutes, the supernatant containing the plasma membrane fraction is centrifuged with 72000 g for 30 minutes and the precipitate is washed with 75 mM Tris buffer, pH 7.4, which contains 25 mM MgCl2. Thereafter, precipitate obtained from in each case 10 g of original tissue is suspended in 1 ml of 75 mM Tris buffer, pH 7.4, containing 25 mM MgCl2 and 250 mM sucrose, and freeze-dried at --20° C. in 1 ml aliquots.
For the binding assay, the freeze-dried membrane preparations are thawed and, after centrifugation at 20° C. and 25000 g for 10 minutes, re-suspended in assay buffer (50 mM Tris buffer, pH 7.4, containing 25 mM MnCl2, 1 mM EDTA and 0.5% of bovine serum albumin). 100 μl of this membrane suspension containing 70 μg of protein are incubated with 50 μl of ^125 I-endothelin (specific activity 2200 Ci/mMol) in assay buffer (25000 cpm, final concentration 20 pM) and 100 μl of assay buffer containing varying concentrations of test compound. The incubation is carried out at 20° C. for 2 hours or at 4° C. for 24 hours. The separation of free and membrane-bound radioligands is carried out by filtration over a glass fiber filter.
The inhibitory activity of compounds of formula I determined in test procedure I is given in Table 1 as the IC50, that as the concentration […] which is required to inhibit 50% of the specific binding of ^1251 -endothelin.

Row | Compound | IC50 [1] [nM] | EC50 (isolated rat aorta rings) [nM]
1 | endothelin: endothelin-1, agonist added in cumulative dosages to contract rat aorta rings | – | 0.3
2 | COc1ccc(Cl)c(Oc2c(COCC(O)CO)nc(N3CCOCC3)nc2NS(=O)(=O)c2ccc(C(C)(C)C)cc2)c1 (racemic) [Example 13, (R,S)-4-tert-butyl-N-[5-(2-chloro-5-methoxy-phenoxy)-6-(2,3-dihydroxy-propoxymethyl)-2-(morpholin-4-yl)-pyrimidin-4yl]-benzenesulphonamide] | 182 | –
3 | COc1ccc(Cl)c(Oc2c(COCCO)nc(N3CCOCC3)nc2NS(=O)(=O)c2ccc(C(C)(C)C)cc2)c1 [Example 5, 4-tert-butyl-N-[5-(2-chloro-5methoxy-phenoxy)-6-(2-hydroxy-ethoxymethyl)-2-(morpholin-4-yl)-pyrimidin-4-yl]-benzenesulphonamide] | 35 | –

The remaining compounds from weak to strong by IC50 [1], led by results:

Row | IC50 [1] [nM] | Compound | EC50 (isolated rat aorta rings) [nM]
4 | 184 | COc1ccc(Cl)c(Oc2c(COCCO)ncnc2NS(=O)(=O)c2ccc(C(C)(C)C)cc2)c1 [Example 10, 4-tert-Butyl-N-[5-(2-chloro-5-methoxy-phenoxy)-6-(2-hydroxy-ethoxy-methyl)-pyrimidin-4-yl]-benzenesulphonamide] | –
5 | 130 | COc1ccc(Cl)c(Oc2c(CO)nc(N3CCOCC3)nc2NS(=O)(=O)c2ccc(C(C)(C)C)cc2)c1 [Example 3, 4-tert-butyl-N-[5-(2-chloro-5-methoxy-phenoxy)-6-hydroxymethyl-2-(morpholin-4-yl)-pyrimidin-4-yl]-benzenesulphonamide] | –
